Structures are written as SMILES.

In one test the target is T1, human IDO1 (Homo sapiens, UniProt P14902).
T1 construct: expressed in transfected cells
T1 sequence (P14902 whole entry): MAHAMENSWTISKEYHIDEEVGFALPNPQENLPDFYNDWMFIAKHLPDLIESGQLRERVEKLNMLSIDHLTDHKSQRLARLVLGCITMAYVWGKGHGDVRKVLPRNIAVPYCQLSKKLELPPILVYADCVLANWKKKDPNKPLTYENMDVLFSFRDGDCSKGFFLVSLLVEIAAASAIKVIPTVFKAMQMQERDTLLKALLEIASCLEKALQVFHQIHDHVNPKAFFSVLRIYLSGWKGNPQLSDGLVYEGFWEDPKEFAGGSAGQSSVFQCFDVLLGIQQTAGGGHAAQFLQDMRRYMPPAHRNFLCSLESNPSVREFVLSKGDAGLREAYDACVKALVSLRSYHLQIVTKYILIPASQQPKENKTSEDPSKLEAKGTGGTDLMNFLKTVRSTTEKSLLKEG
As to the kind of experiment: IDO inhibition assay in HEK293 cells stably expressing human IDO1 (kynurenine, Ehrlich reagent). In kind it is cell-based. The following applies: 20 hours incubation, read-out: HEK Human IDO-1 Bio Activity. The procedure:
They were cultured in medium (DMEM with 10% FBS) containing 1 mg/ml G418 for two weeks.
The human IDO1/HEK293 cells were seeded at 10,000 cells per 50 μL per well with RPMI/phenol red free media contains 10% FBS in a 384-well black wall clear bottom tissue culture plate (Matrix Technologies LLC) 100 nL of certain concentration of compound was then added to each well using ECHO liquid handling systems. The cells were incubated for 20 hours in 37° C. incubator with 5% CO2.
The compound treatments were stopped by adding trichloroacetic acid (Sigma-Aldrich) to a final concentration at 0.2%. The cell plate was further incubated at 50° C. for 30 minute. The equal volume supernatant (20 μL) and 0.2% (w/v) Ehrlich reagent (4-dimethylaminobenzaldehyde, Sigma-Aldrich) in glacial acetic acid were mixed in a new clear bottom 384-well plate. This plate was then incubated at room temperature for 30 minute. The absorbance at 490 nm was measured on Envision plate reader.
Regarding `Cc1c(C2CCC(C(C)NC(=O)c3ccc(Cl)cc3)CC2)ccnc1F` (single isomer, unassigned) [Example 158b, 4-chloro-N-(1-(4-(2-fluoro-3-methylpyridin-4-yl)cyclohexyl)ethyl)benzamide], the IC50 was less than 50 nM.

Turning to `Cc1c(C2CCC(C(C)NC(=O)c3ccc(Cl)cc3)CC2)ccnc1F` (single isomer, unassigned) [Example 158c, 4-chloro-N-(1-(4-(2-fluoro-3-methylpyridin-4-yl)cyclohexyl)ethyl)benzamide], the IC50 is less than 50 nM.

In the case of `Cc1c(C2CCC(C(C)NC(=O)c3ccc(Cl)cc3)CC2)ccnc1F` (single isomer, unassigned) [Example 158d, 4-chloro-N-(1-(4-(2-fluoro-3-methylpyridin-4-yl)cyclohexyl)ethyl)benzamide], the IC50 was less than 50 nM.

For `Cc1c(C2CCC(C(C)NC(=O)c3ccc(Cl)cc3)CC2)ccnc1F` (single isomer, unassigned) [Example 158e, 4-chloro-N-(1-(4-(2-fluoro-3-methylpyridin-4-yl)cyclohexyl)ethyl)benzamide], the IC50 is less than 2000 nM.

In the case of `Cc1nccc(C2CCC(C(C)NC(=O)c3ccc(Cl)cc3)CC2)c1C` (single isomer, unassigned) [Example 159b, 4-chloro-N-(1-(4-(2,3-dimethylpyridin-4-yl)cyclohexyl)ethyl)benzamide], the IC50 is less than 250 nM.

In the case of `Cc1nccc(C2CCC(C(C)NC(=O)c3ccc(Cl)cc3)CC2)c1C` (single isomer, unassigned) [Example 159c, 4-chloro-N-(1-(4-(2,3-dimethylpyridin-4-yl)cyclohexyl)ethyl)benzamide], the IC50 was less than 50 nM.

Turning to `Cc1nccc(C2CCC(C(C)NC(=O)c3ccc(Cl)cc3)CC2)c1C` (single isomer, unassigned) [Example 159d, 4-chloro-N-(1-(4-(2,3-dimethylpyridin-4-yl)cyclohexyl)ethyl)benzamide], the IC50 is less than 50 nM.

`Cc1nccc(C2CCC(C(C)NC(=O)c3ccc(Cl)cc3)CC2)c1C` (single isomer, unassigned) [Example 159e, 4-chloro-N-(1-(4-(2,3-dimethylpyridin-4-yl)cyclohexyl)ethyl)benzamide]: the IC50 was less than 2000 nM.

As to `Cc1cnccc1C1CCC(C(C)NC(=O)c2ccc(Cl)cc2)CC1` (single isomer, unassigned) [Example 160b, 4-chloro-N-(1-(4-(3-methylpyridin-4-yl)cyclohexyl)ethyl)benzamide], the IC50 was less than 2000 nM.

In the case of `Cc1cnccc1C1CCC(C(C)NC(=O)c2ccc(Cl)cc2)CC1` (single isomer, unassigned) [Example 160c, 4-chloro-N-(1-(4-(3-methylpyridin-4-yl)cyclohexyl)ethyl)benzamide], the IC50 is less than 2000 nM.

In the case of `Cc1cnccc1C1CCC(C(C)NC(=O)c2ccc(Cl)cc2)CC1` (single isomer, unassigned) [Example 160d, 4-chloro-N-(1-(4-(3-methylpyridin-4-yl)cyclohexyl)ethyl)benzamide], the IC50 was less than 250 nM.

Take `Cc1cnccc1C1CCC(C(C)NC(=O)c2ccc(Cl)cc2)CC1` (single isomer, unassigned) [Example 160e, 4-chloro-N-(1-(4-(3-methylpyridin-4-yl)cyclohexyl)ethyl)benzamide]: the IC50 is less than 50 nM.

In the case of `CC(NC(=O)c1ccc(Cl)cc1)C1CCC(c2ccncc2F)CC1` (single isomer, unassigned) [Example 161a, 4-chloro-N-(1-(4-(3-fluoropyridin-4-yl)cyclohexyl)ethyl)benzamide], the IC50 was less than 2000 nM.

For a further test, the target named is T2, indoleamine 2,3-dioxygenase (IDO) (Homo sapiens, UniProt P14902).
T2 construct: host or cells: HeLa cells, IDO induced with IFNγ (25 ng/mL)
T2 sequence (P14902 whole entry): as above
Description: HeLa cell-based indoleamine 2,3-dioxygenase (IDO) assay (IFNγ-induced kynurenine production). The following applies: Tables 3-7; compounds shown only as drawings; read-out: Potency (IDO IC50). The protocol: Assessment of inhibitor activity in HeLa cell-based indoleamine 2,3-dioxygenase (IDO) assay.
HeLa (ATCC® CCL-2) cells were obtained from the ATCC® and cultured in Dulbecco's Modified Eagle Medium supplemented with 4.5 g/L glucose, […] (#10-013-CV, Corning), 2 mM L-alanyl-L-glutamine dipeptide (#35050-061, Gibco), 100 U/mL penicillin, 100 μg/mL streptomycin (#SV30010, HyClone) and 10% fetal bovine serum (#SH30071.03 HyClone). Cells were maintained in a humidified incubator at 37° C. in 5% CO2.
IDO activity was assessed as a function of kynurenine production as follows: HeLa cells were seeded in a 96-well culture plate at a density of 5,000 cells/well and allowed to equilibrate overnight. After 24 hours, the media was aspirated and replaced with media containing IFNγ (#285-IF/CF, R&D Systems) at a final concentration of 25 ng/mL. A serial dilution of each test compound was added to the cells in a total volume of 200 μL of culture medium. After a further 48 hour incubation, 170 μL of supernatant was transferred from each well to a fresh 96-well plate. 12.1 μL of 6.1N trichloroacetic acid (#T0699, Sigma-Aldrich) was added to each well and mixed, followed by incubation at 65° C. for 20 minutes to hydrolyze N-formylkynurenine, the product of indoleamine 2,3-dioxygenase, to kynurenine. The reaction mixture was then centrifuged for 10 mins at 500×g to sediment the precipitate. 100 μL of the supernatant was transferred from each well to a fresh 96-well plate. 100 μl of 2% (w/v) p-dimethylaminobenzaldehyde (#15647-7, Sigma-Aldrich) in acetic acid (#A6283, Sigma-Aldrich) was added to each well mixed and incubated at room temperature for 20 mins. Kynurenine concentrations were determined by measuring absorbance at 480 nm and calibrating against an L-kynurenine (#K8625, Sigma-Aldrich) standard curve using a SPECTRAMAX® M2e microplate reader (Molecular Devices). The percentage activity at each inhibitor concentration was determined and IC50 values assessed using nonlinear regression.
Activity for compounds described herein is provided in Tables 3-7, wherein potency levels are provided as follows: (Potency: IDO IC50: A<0.1 μM; B<1 μM; C<10 μM)
For the compound `O=C(Nc1ccc(Cl)cc1)[C@H]1CC[C@@H](Cc2ccccc2)CC1`, the IC50 is less than 2000 nM.

Take `O=C(Nc1ccc(Cl)cc1)[C@H]1CC[C@H](Cc2ccccc2)CC1`: the IC50 is less than 2000 nM.

Regarding `N#Cc1ccc(NC(=O)[C@H]2CC[C@@H](Cc3ccccc3)CC2)cc1`, the IC50 was less than 2000 nM.

As for `N#Cc1ccc(NC(=O)[C@H]2CC[C@H](Cc3ccccc3)CC2)cc1`, the IC50 is less than 2000 nM.

For the compound `O=C(Nc1ccc(F)cc1)[C@H]1CC[C@@H](Cc2ccccc2)CC1`, the IC50 was less than 2000 nM.

On to `O=C(Nc1ccc(F)cc1)[C@H]1CC[C@H](Cc2ccccc2)CC1`, for which the IC50 is less than 2000 nM.

Regarding `COc1ccc(NC(=O)[C@H]2CC[C@@H](Cc3ccccc3)CC2)cc1`, the IC50 is less than 2000 nM.

As to `COc1ccc(NC(=O)[C@H]2CC[C@H](Cc3ccccc3)CC2)cc1`, the IC50 is less than 2000 nM.

`COc1ccc(C2CCC(CC(=O)NCc3ccccc3)CC2)cc1` (stereo not drawn): the IC50 is less than 2000 nM.

Consider `COc1ccc([C@H]2CC[C@@H](CC(=O)NCc3ccccc3)CC2)cc1`, for which the IC50 is less than 250 nM.

Regarding `N#Cc1ccc(C(=O)NC[C@H]2CC[C@@H](c3ccccc3)CC2)cc1`, the IC50 is less than 250 nM.

On to `O=S(=O)(NC[C@H]1CC[C@@H](c2ccccc2)CC1)c1ccc(Cl)cc1`, for which the IC50 was less than 250 nM.

Regarding `N#Cc1cccc(C(=O)NC[C@H]2CC[C@@H](c3ccccc3)CC2)c1`, the IC50 is less than 50 nM.

Regarding `O=C(c1ccc(Cl)cc1)N1CCC(Cc2ccccc2)CC1`, the IC50 was less than 2000 nM.

With `O=C(NC[C@H]1CC[C@@H](c2ccccc2)CC1)c1ccc(Cl)cc1`, the IC50 was less than 250 nM.

For `O=C(c1cccc(Cl)c1)N1CCC(Cc2ccccc2)CC1`, the IC50 is less than 2000 nM.

For the compound `O=C(NC[C@H]1CC[C@@H](c2ccccc2)CC1)c1cccc(Cl)c1`, the IC50 was less than 50 nM.

`O=C(NC[C@H]1CC[C@@H](c2ccccc2)CC1)c1ccc(F)cc1`: the IC50 was less than 50 nM.

For the compound `COc1ccc([C@H]2CC[C@@H](CCNc3ccc(Cl)cc3)CC2)cc1`, the IC50 is less than 250 nM.

Turning to `COc1ccc([C@H]2CC[C@H](CCNc3ccc(Cl)cc3)CC2)cc1`, the IC50 is less than 2000 nM.

Consider `O=C(Nc1ccc(Cl)cc1)O[C@H]1CC[C@@H](c2ccccc2)C1`, for which the IC50 was less than 2000 nM.

For the compound `O=C(Nc1ccc(F)cc1)OC[C@H]1CC[C@@H](c2ccccc2)CC1`, the IC50 was less than 2000 nM.

With `O=C(Nc1ccc(F)cc1)N[C@H]1CC[C@H](c2ccccc2)CC1`, the IC50 is less than 50 nM.

In the case of `O=C(Nc1cccc(Cl)c1)N[C@H]1CC[C@@H](c2ccccc2)CC1`, the IC50 is less than 250 nM.

Turning to `O=C(Nc1ccc(Cl)cc1)N[C@H]1CC[C@H](c2ccccc2)CC1`, the IC50 was less than 50 nM.

`O=C(Cc1ccc(Cl)cc1)N[C@H]1CC[C@@H](c2ccccc2)CC1`: the IC50 is less than 2000 nM.

As to `O=C(Nc1cccc(Cl)c1)N[C@H]1CC[C@H](c2ccccc2)CC1`, the IC50 was less than 50 nM.

With `O=C(Nc1ccc(Cl)cc1)N[C@H]1CC[C@@H](c2ccccc2)CC1`, the IC50 was less than 250 nM.

Turning to `O=C(Cc1cccc(Cl)c1)N[C@H]1CC[C@H](c2ccccc2)CC1`, the IC50 is less than 50 nM.

With `O=C(Nc1ccc(Cl)cc1)N1CCC(Oc2ccccc2)CC1`, the IC50 was less than 2000 nM.

Take `O=C(Nc1ccc(Cl)cc1)C1CCC(Oc2ccccc2)CC1` (stereo not drawn): the IC50 was less than 250 nM.

For the compound `COc1ccc([C@H]2CC[C@H](NC(=O)Cc3ccc(Cl)cc3)CC2)cc1`, the IC50 is less than 250 nM.

For `O=S(=O)(CC1CCC(c2ccnc3ccccc23)CC1)Nc1ccc(Cl)cc1` (stereo not drawn), the IC50 is less than 50 nM.

Turning to `COc1ccc(C2CCC(CC(Nc3ccc(F)cc3)C(F)(F)F)CC2)cc1` (stereo not drawn), the IC50 is less than 50 nM.

In the case of `COc1ccc(C2CCC(CC(Nc3ccc(Cl)cc3)C(F)(F)F)CC2)cc1` (stereo not drawn), the IC50 was less than 50 nM.

On to `N#Cc1ccc(CC(=O)N[C@H]2CC[C@H](c3ccccc3)CC2)cc1`, for which the IC50 was less than 250 nM.

As to `CC(C(=O)N[C@H]1CC[C@H](c2ccccc2)CC1)c1ccc(C#N)cc1` (stereo partly drawn), the IC50 is less than 50 nM.

Consider `O=C(Cc1ccc(Cl)cc1)N[C@H]1CC[C@H](c2ccnc3ccccc32)CC1`, for which the IC50 is less than 250 nM.
